Results on 3 molecules are retold here after US12607620B2, “Devices and systems for mimicking heart function” (UNIVERSITY OF CENTRAL FLORIDA RESEARCH FOUNDATION, INC., priority 2013, dated 2026).

In experiment [1] the test system is human cardiomyocytes. Put plainly: Microelectrode array (MEA) recording of electrical activity of patterned human cardiomyocytes. The format is cell-based.
Method: The cardiac myocytes were cultured on patterned metal MEAs (planar 10 μm electrodes, 200 μm separation, Multichannel-systems). A 60 channel amplifier (MEA1040, Multichannel-systems) was used to record electrical activity from the spontaneously beating cardiac cells. The same electrodes were also used for stimulation utilizing a stimulus generator (STG 1002, Multichannel systems). The cells were stimulated utilizing 500 mV, 1 ms wide bipolar pulses at 2 Hz. The recording medium was the same as the plating medium with the pH adjusted to 7.3 using HEPES buffer. After a 30 minute incubation period, APs were detected and recorded using built in functions of the Multichannel System software. […] The data was further analyzed using software written using Matlab and Clampfit (Axon instruments). […] The cardiomyocytes used in these experiments were derived from differentiated adult induced pluripotent stem cells purchased from Cellular Dynamics. In FIG. 27 and FIG. 28, the electrical activity of the human cardiomyocytes plated on patterned MEAs was recorded following 12 days in vitro using a Multichannel Systems 60 channel amplifier (MEA 1040, Multichannel Systems). Prior to recording, the cells were allowed to equilibrate for 15 min in the lab atmosphere at 37° C. Temperature was maintained with a TC02 temperature controller (Multichannel Systems). The cells were stimulated using a STG 1002 stimulator (Multichannel Systems) by applying 1 ms wide bipolar square pulses of 500 mV every 500 ms. The recording medium was the same as the plating medium. […] Data are represented as percentage changes compared to the control and expressed as mean +/−SEM. In FIG. 29, electrical activity of the human cardiomyocytes plated on patterned MEAs was recorded following 12 days in vitro (DIV) using a Multichannel Systems 60 channel amplifier (MEA 1040, Multichannel Systems). Prior to recording, the cells were allowed to equilibrate for 15 min in the lab atmosphere at 37° C. Temperature was maintained with a TC02 temperature controller (Multichannel Systems). The cells were stimulated using a STG 1002 stimulator (Multichannel Systems) by applying 1 ms wide bipolar square pulses of 500 mV every 500 ms. The recording medium was the same as the plating medium. Sotalol (Sigma, cat#S0278) was added to the bathing medium in increasing concentrations of 0 μM, 10 μM, 30 μM, 100 μM, and 300 μM.
Experiment [2] relates to human cardiomyocytes. The experiment in a line: Cantilever contractile force measurement of human cardiomyocytes (AFM-like laser deflection detection). The format is cell-based. As for the experimental part:
Spontaneous or electrical stimulation-evoked force generation of cardiac myocytes was measured based on optical detection or electrical detection of cantilever-bending. Optical detection of displacement of the end of the cantilever was based on the principle routinely used in atomic force microscopes (AFM) in which a laser beam was reflected from the cantilever to a sensor. The sensor detected the displacement of the laser beam caused by changes in the position of the cantilever. In this optical detection method, an automated electrical shutter was placed in the beam path. This placement minimized the exposure of the cells to the reflected laser light. Electrical detection of the displacement was based on piezoelectric principle that requires special design and materials for the fabrication of the cantilevers. Both detection methods enabled automation and high-throughput screening on myocyte contraction force. Peak contraction force and force-contraction velocity relationships were calculated based on the geometry of the cantilevers and the thickness of cultured cardiac myocytes (determined from immunostaining data). Compounds (such as norepinephrine, epinephrine, ouabain, verapamil, and sotalol) were applied using traditional methods to the medium and possible changes in force or force-velocity relationship were detected and analyzed using standard statistical methods.
A detection system similar to those used in atomic force microscope (AFM) system was designed for measuring deflection of the cantilevers during contraction. The entire system was assembled around an upright Olympus BX51WI electrophysiology microscope (Olympus Inc., Center Valley, PA). The detection system consisted of a class 2 red photodiode laser (Newport, Irvine, CA), a stimulation chamber, a 4-quadrant photodetector (Noah Industries, Melbourne, FL), and a computer with pClamp 10.0 data acquisition software (Molecular Devices, Union City, CA). The laser and photodetector (PD) were mounted on x-y-z-h translators (Newport, Irvine, CA), which were mounted on the underside of the microscope stage. The stimulation chamber was fabricated from 5 mm thick polycarbonate sheet. An approximately 15 mm×15 mm square chamber was milled out of the sheet and fitted with silver wires (0.015 inch diameter) for field stimulation. The silver wires were mounted parallel to each other with a separation of 15 mm. The bottom of the chamber was sealed using a 22 mm×22 mm glass coverslip. This created a transparent base through which the laser beam could easily pass. The silver wires were connected to an external pulse generator (A-M systems, Sequim, WA) capable of producing field stimulation pulses of varying intensity, frequency, and waveform. Both the pulse generator and PD were connected to an Axon Instruments series 1440 digitizer (Molecular Devices, Union City, CA) which was interfaced with the computer.
A detection system similar to that used in atomic force microscopy (AFM) was used in these experiments. Prior to recording, the cells were allowed to equilibrate for 15 min in the lab atmosphere at 37° C. Drugs were added cumulatively as follow: 0.1 μM, 0.3 μM, 1.0 μM, and 3.0 μM (norepinephrine); 0.1 μM, 1.0 μM, and 3.0 μM (epinephrine); 0.1 μM, 0.3 μM, 1.0 μM, and 3.0 μM (ouabain); and 0.3 μM, 1.0 μM, and 3.0 μM (verapamil). Washout was performed by rinsing the cells five (5) times with 1 mL of cell culture medium.

[3] abbreviates: norepinephrine concentration range 0.1-3 μM, human cardiac myocytes.
Setting [4] is: cardiomyocytes derived from human iPSCs cultured on cantilevers (FIG. 31D).
Setting [5] is: sotalol 0-300 μM in bathing medium, human cardiomyocytes on patterned MEAs, 12 DIV, change vs control (FIG. 29).

Turning to `NC[C@H](O)c1ccc(O)c(O)c1` [norepinephrine], in the experiment with human cardiomyocytes [1] (setting [3]), the QT interval entry is “decreased”, the “minimal ISI (analogue of QT interval)” value was “decreased” and the spontaneous beating rate entry is listed as “significantly increased”. In the experiment on human cardiomyocytes [2] (setting [4]), the contractile force result is “increasing” and the contractile frequency result was “increasing”. Besides, the peak contraction force entry in the experiment with human cardiomyocytes [2] (norepinephrine concentration range 0.1-3 μM, human cardiac myocytes on cantilevers, 14 days in vitro (FIG. 30A)) is on record as “increased”.

As for `CC(C)NCC(O)c1ccc(NS(C)(=O)=O)cc1` (centres unmarked) [sotalol], in the experiment on human cardiomyocytes [1] (setting [5]), the QT intervals result is listed as “significantly increased” and the “mISI (minimum interspike interval)” value is “significantly increased”. In addition, the conduction velocity entry in the experiment on human cardiomyocytes [1] (sotalol concentrations above 100 μM, human cardiomyocytes on patterned MEAs, 12 DIV) is on record as “decreased”.

Consider `COc1ccc(CCN(C)CCC[C@@](C#N)(c2ccc(OC)c(OC)c2)C(C)C)cc1OC` [verapamil], for which the “peak force versus concentration (μM)” value with human cardiomyocytes [2] (human cardiomyocytes following administration of verapamil (FIG. 12C)) is “decrease”. The contraction peak force entry in the experiment on human cardiomyocytes [2] (verapamil 0.3, 1.0, 3.0 μM cumulative, human cardiomyocytes on cantilevers, 14 days in vitro (FIG. 30D)) was “concentration dependently decreased”.
